According to PubChem BioAssay (NCI):
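Results reflect a 48-hour exposure of cells in 96-well plates to compound at five concentrations. TGI marks complete inhibition of growth.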

How the values were obtained:
Assay in all cases: DTP human tumour cell line panel, 48 h
SK-MEL-28 melanoma = test system: SK-MEL-28 melanoma
NCI-H226 lung = test system: NCI-H226 lung
HCT-116 colon = test system: HCT-116 colon
A549 NSCLC = test system: A549 NSCLC
786-0 renal = test system: 786-0 renal
HOP-62 NSCLC = test system: HOP-62 NSCLC
MDA-MB-435 = test system: MDA-MB-435
UO-31 renal = test system: UO-31 renal
NCI-H522 lung = test system: NCI-H522 lung
HT29 colon = test system: HT29 colon
SW-620 colon = test system: SW-620 colon
LOX IMVI melanoma = test system: LOX IMVI melanoma
SN12C renal = test system: SN12C renal
HCT-15 colon = test system: HCT-15 colon
NCI-H23 lung = test system: NCI-H23 lung
UACC-62 melanoma = test system: UACC-62 melanoma
MDA-N = test system: MDA-N
BT-549 breast = test system: BT-549 breast
OVCAR-4 ovarian = test system: OVCAR-4 ovarian
SF-268 CNS = test system: SF-268 CNS
CAKI-1 renal = test system: CAKI-1 renal
RXF 393 renal = test system: RXF 393 renal
SK-OV-3 ovarian = test system: SK-OV-3 ovarian
SK-MEL-2 melanoma = test system: SK-MEL-2 melanoma
SF-295 CNS = test system: SF-295 CNS
TK-10 renal = test system: TK-10 renal
NCI/ADR-RES ovarian = test system: NCI/ADR-RES ovarian
MALME-3M melanoma = test system: MALME-3M melanoma
SK-MEL-5 melanoma = test system: SK-MEL-5 melanoma
KM12 colon = test system: KM12 colon
IGROV1 ovarian = test system: IGROV1 ovarian
PC-3 prostate = test system: PC-3 prostate
HS 578T breast = test system: HS 578T breast
SNB-19 CNS = test system: SNB-19 CNS
U251 CNS = test system: U251 CNS
COLO 205 colon = test system: COLO 205 colon
OVCAR-8 ovarian = test system: OVCAR-8 ovarian
DU-145 prostate = test system: DU-145 prostate
UACC-257 melanoma = test system: UACC-257 melanoma
MDA-MB-231 breast = test system: MDA-MB-231 breast
OVCAR-5 ovarian = test system: OVCAR-5 ovarian
CCRF-CEM leukemia = test system: CCRF-CEM leukemia
MOLT-4 leukemia = test system: MOLT-4 leukemia
M14 melanoma = test system: M14 melanoma
NCI-H460 lung = test system: NCI-H460 lung
HOP-92 NSCLC = test system: HOP-92 NSCLC
HCC-2998 colon = test system: HCC-2998 colon
EKVX NSCLC = test system: EKVX NSCLC
OVCAR-3 ovarian = test system: OVCAR-3 ovarian
K-562 leukemia = test system: K-562 leukemia
T-47D breast = test system: T-47D breast

Q: How did the TGI (SK-MEL-28 melanoma) turn out when `CC1=C[C@H](O)[C@@]2(C)[C@@H]([C@@H]1C)[C@H]1CC[C@@H]3[C@@]4(C)CC[C@H](O)C(C)(C)[C@@H]4CC[C@@]3(C)[C@]1(C)C[C@@H]2O` was run?
A: 34.4 µM

Q: And the TGI (NCI-H226 lung)?
A: 45.7 µM

Q: What about the TGI (HCT-116 colon) of the same compound?
A: 25.1 µM

Q: And the TGI (A549 NSCLC)?
A: 26.9 µM

Q: And the TGI (786-0 renal)?
A: 28.2 µM

Q: And the TGI (HOP-62 NSCLC)?
A: 33.4 µM

Q: And the TGI (MDA-MB-435)?
A: 39.3 µM

Q: And the TGI (UO-31 renal)?
A: 33.2 µM

Q: What about the TGI (NCI-H522 lung) of the same compound?
A: 38 µM

Q: What about the TGI (HT29 colon) of the same compound?
A: 27.1 µM

Q: And the TGI (SW-620 colon)?
A: 47.3 µM

Q: And the TGI (LOX IMVI melanoma)?
A: 54 µM

Q: What about the TGI (SN12C renal) of the same compound?
A: 29.2 µM

Q: What about the TGI (HCT-15 colon) of the same compound?
A: 41.3 µM

Q: What about the TGI (NCI-H23 lung) of the same compound?
A: 45.3 µM

Q: What about the TGI (UACC-62 melanoma) of the same compound?
A: 35.3 µM

Q: What about the TGI (MDA-N) of the same compound?
A: 29.7 µM

Q: What about the TGI (BT-549 breast) of the same compound?
A: 45.1 µM

Q: What about the TGI (OVCAR-4 ovarian) of the same compound?
A: 33.7 µM

Q: What about the TGI (SF-268 CNS) of the same compound?
A: 25.3 µM

Q: And the TGI (CAKI-1 renal)?
A: 36.6 µM

Q: And the TGI (RXF 393 renal)?
A: 34.1 µM

Q: What about the TGI (SK-OV-3 ovarian) of the same compound?
A: 35.7 µM

Q: What about the TGI (SK-MEL-2 melanoma) of the same compound?
A: 38.4 µM

Q: And the TGI (SF-295 CNS)?
A: 31.1 µM

Q: And the TGI (TK-10 renal)?
A: 36.8 µM

Q: And the TGI (NCI/ADR-RES ovarian)?
A: 44.5 µM

Q: What about the TGI (MALME-3M melanoma) of the same compound?
A: 40.7 µM

Q: And the TGI (SK-MEL-5 melanoma)?
A: 30.4 µM

Q: What about the TGI (KM12 colon) of the same compound?
A: 39.2 µM

Q: And the TGI (IGROV1 ovarian)?
A: 41.2 µM

Q: What about the TGI (PC-3 prostate) of the same compound?
A: 35.1 µM

Q: And the TGI (HS 578T breast)?
A: 55 µM

Q: And the TGI (SNB-19 CNS)?
A: 30.1 µM

Q: What about the TGI (U251 CNS) of the same compound?
A: 35.2 µM

Q: What about the TGI (COLO 205 colon) of the same compound?
A: 37.9 µM

Q: And the TGI (OVCAR-8 ovarian)?
A: 48 µM

Q: What about the TGI (DU-145 prostate) of the same compound?
A: 31 µM

Q: And the TGI (UACC-257 melanoma)?
A: 34.5 µM

Q: And the TGI (MDA-MB-231 breast)?
A: 35.1 µM

Q: What about the TGI (OVCAR-5 ovarian) of the same compound?
A: 29.4 µM

Q: What about the TGI (CCRF-CEM leukemia) of the same compound?
A: 40.5 µM

Q: And the TGI (MOLT-4 leukemia)?
A: 34.5 µM

Q: And the TGI (M14 melanoma)?
A: 31.6 µM

Q: What about the TGI (NCI-H460 lung) of the same compound?
A: 33.4 µM

Q: And the TGI (HOP-92 NSCLC)?
A: 29.6 µM

Q: And the TGI (HCC-2998 colon)?
A: 33 µM

Q: What about the TGI (EKVX NSCLC) of the same compound?
A: 25.6 µM

Q: What about the TGI (OVCAR-3 ovarian) of the same compound?
A: 31.4 µM

Q: What about the TGI (K-562 leukemia) of the same compound?
A: 48.2 µM

Q: And the TGI (T-47D breast)?
A: 28.9 µM
